# From paper PMC7988488 (The Journal of Biological Chemistry, 2021)
# Like-named read-outs stand apart in the source and are kept apart here.
# Experiments:
# [1] = system: capsaicin-induced nociceptive behavior; assay: Capsaicin-induced nociception; type: in vivo, mice; conditions: 100 μg/kg i.m., 30 min before intraplantar capsaicin 1 μg; 5-min observation
# Protocol: On the day of testing, ICR male mice were treated by intramuscular injection with equal volume of saline, H4 (10 and 30 μg/kg i.m.), or a positive control in the form of the potent Nav1.7 antagonist PF-05198007 (100 μg/kg i.m.) ([35]). Thirty minutes following test article treatment, animals were subjected to intraplantar injection of 1 μg of capsaicin in a volume of 20 μl of 5% EtOH in saline into the right hind paw. Immediately after the capsaicin injection, the total time spent engaged in licking of the injected hind paw was manually recorded over a 5-min period. All dosing and scoring activities were conducted by experimenters who were fully blinded to treatment conditions.
# [2] = system: formalin-induced spontaneous pain behaviors; type: in vivo, mice
# acute heat pain response = type: in vivo, mice
# [3] = system: CFA-induced mechanical allodynia; parameters: species or system mice; conditions: mouse, in vivo
# hNav1.7 mutants = type: cell-based, human
molecule,measurement,setting,value
Nc1[nH]ncc1-c1cc(Cl)ccc1Oc1cc(F)c(S(=O)(=O)Nc2cscn2)cc1Cl [PF-05089771],capsaicin-elicited paw licking response (in words),[1],significantly blocked
CN1CC[C@]23c4c5ccc(O)c4O[C@H]2[C@@H](O)C=C[C@H]3[C@H]1C5 [morphine],"paw licking time, early phase","[2]; mouse, in vivo",110.3 ± 12.9 s
same,"paw licking time, late phase","[2]; mouse, in vivo",86.7 ± 8.5 s
same,hot plate latency,"acute heat pain response; mouse, in vivo, SD",17.0 ± 0.9 s
same,duration of anti-allodynic effect,[3],2 h
same,paw withdrawal threshold compared with saline (in words),[3],significantly enhanced
Hainantoxin-III [Compound 1],"paw licking time, early phase","[2]; 100 μg/kg i.m., 30 min before formalin, early phase 0-10 min, control 145.2 ± 6.9 s",68.1 ± 9.7 s
same,"paw licking time, late phase","[2]; 100 μg/kg i.m., 30 min before formalin, late phase 15-35 min, control 224 ±16.7 s",71.0 ± 13.0 s
same,hot plate latency,"acute heat pain response; 100 μg/kg i.p., 1 h after treatment, plate 55 °C, mean ± SD, n = 5 to 8",15.1 ± 0.9 s
same,affinity for hNav1.7 mutants versus WT hNav1.7 (in words),hNav1.7 mutants,did not change significantly
